In patent publication US20240208968A1, “ALPHA V BETA 6 AND ALPHA V BETA 1 INTEGRIN INHIBITORS AND USES THEREOF” (DiCE Molecules SV, Inc., priority 2021, published 2024):

What was measured:
αvβ1 = αvβ1 (Homo sapiens, UniProt P05556+P06756); experiment: Solid Phase Integrin αvβ1 Assay; assay type: binding
Outline: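 Wells coated with 1 µg/mL recombinant TGFb1-LAP and blocked with 2% BSA/TBST, 1 mM MnCl2; αvβ1 (added at 0.2 µg/mL) and compound incubated 90 min at room temperature. Bound integrin detected by streptavidin-HRP (20 min) and TMB after Mn-containing washes; IC50 by four-parameter logistic fit.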

αvβ6 = αvβ6 (Homo sapiens, UniProt P06756+P18564); experiment: Solid Phase Integrin αvβ6 Assay; assay type: binding
Outline: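 Plates coated with 1 μg/mL recombinant TGFb1-LAP; compounds and αvβ6 (0.2 μg/mL diluted stock) incubated 1 h at room temperature in 2% BSA/TBST with 1 mM MnCl2. Bound integrin detected with streptavidin-HRP and TMB; IC50 from four-parameter logistic fits.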

Sequence of αvβ6 (P06756 31-992 limits assumed): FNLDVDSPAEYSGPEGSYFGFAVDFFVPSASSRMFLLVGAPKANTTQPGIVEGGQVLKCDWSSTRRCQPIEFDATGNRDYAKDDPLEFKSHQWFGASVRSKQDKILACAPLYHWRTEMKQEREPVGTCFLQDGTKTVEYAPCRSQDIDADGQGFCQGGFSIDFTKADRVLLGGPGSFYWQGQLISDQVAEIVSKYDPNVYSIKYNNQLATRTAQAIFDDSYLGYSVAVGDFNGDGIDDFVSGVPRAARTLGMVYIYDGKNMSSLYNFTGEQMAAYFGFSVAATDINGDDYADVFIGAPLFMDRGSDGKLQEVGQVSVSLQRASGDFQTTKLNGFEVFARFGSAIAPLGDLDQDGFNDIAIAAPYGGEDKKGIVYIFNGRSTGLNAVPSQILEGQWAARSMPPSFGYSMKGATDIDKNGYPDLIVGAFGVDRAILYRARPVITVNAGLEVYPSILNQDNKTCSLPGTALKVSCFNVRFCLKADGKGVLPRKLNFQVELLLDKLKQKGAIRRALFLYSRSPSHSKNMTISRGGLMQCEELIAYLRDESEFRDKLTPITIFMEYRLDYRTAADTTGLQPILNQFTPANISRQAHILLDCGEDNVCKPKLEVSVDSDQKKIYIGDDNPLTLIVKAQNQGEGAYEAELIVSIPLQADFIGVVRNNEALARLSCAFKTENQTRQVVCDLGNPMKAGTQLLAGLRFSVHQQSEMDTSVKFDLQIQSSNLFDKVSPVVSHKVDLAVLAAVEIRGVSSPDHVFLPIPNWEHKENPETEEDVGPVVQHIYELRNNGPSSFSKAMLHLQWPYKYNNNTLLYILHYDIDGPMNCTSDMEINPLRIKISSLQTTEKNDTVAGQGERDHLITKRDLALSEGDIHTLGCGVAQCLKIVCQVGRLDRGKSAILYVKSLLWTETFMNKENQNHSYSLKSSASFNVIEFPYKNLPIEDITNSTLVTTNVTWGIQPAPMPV
Sequence of αvβ6 (P18564 22-707 limits assumed): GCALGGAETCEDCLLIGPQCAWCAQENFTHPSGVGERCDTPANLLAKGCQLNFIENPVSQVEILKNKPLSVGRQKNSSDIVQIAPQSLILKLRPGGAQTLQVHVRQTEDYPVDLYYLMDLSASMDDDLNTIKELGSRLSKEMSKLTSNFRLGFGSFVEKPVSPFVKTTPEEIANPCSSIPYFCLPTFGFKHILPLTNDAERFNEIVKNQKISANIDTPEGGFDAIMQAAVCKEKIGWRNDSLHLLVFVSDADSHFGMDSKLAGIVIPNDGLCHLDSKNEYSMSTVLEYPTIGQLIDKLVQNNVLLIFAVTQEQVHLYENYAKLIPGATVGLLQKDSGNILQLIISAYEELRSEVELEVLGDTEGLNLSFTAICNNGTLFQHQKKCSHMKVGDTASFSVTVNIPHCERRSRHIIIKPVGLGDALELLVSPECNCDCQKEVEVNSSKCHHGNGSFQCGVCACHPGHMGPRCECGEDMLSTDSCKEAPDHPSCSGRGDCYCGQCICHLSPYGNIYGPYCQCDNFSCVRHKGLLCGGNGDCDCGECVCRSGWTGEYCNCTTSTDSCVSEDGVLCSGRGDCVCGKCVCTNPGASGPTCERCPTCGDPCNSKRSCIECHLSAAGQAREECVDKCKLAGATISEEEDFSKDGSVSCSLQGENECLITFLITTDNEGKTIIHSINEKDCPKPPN
Sequence of αvβ1 (P06756 31-992 limits assumed): as the sequence (P06756 31-992 limits assumed) above
Sequence of αvβ1 (P05556 21-728 limits assumed): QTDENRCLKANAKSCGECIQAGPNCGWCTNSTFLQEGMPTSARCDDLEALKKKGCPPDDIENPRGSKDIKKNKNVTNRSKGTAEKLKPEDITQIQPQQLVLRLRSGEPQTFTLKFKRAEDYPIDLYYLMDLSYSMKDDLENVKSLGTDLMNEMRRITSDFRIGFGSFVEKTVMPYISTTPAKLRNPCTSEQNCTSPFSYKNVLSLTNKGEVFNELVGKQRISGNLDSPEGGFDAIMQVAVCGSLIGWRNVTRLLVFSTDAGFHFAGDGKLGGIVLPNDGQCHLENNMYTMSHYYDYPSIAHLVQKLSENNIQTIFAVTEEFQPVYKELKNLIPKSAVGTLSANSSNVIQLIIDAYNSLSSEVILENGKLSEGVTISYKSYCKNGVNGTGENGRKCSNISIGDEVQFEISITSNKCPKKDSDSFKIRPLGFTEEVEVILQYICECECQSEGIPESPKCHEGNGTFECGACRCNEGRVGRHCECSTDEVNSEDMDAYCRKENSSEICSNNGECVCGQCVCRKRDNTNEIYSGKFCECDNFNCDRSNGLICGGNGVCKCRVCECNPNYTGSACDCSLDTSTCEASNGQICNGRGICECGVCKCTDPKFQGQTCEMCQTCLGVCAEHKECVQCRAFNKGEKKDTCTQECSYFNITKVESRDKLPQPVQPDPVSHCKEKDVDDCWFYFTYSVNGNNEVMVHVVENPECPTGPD

| Compound | IC50 (αvβ1) [nM] | IC50 (αvβ6) [nM] |
| --- | --- | --- |
| CC1(C)CN(c2cc([C@H](CO[C@@H]3CCCN(CCCc4ccc5c(n4)NCCC5)C3)CC(=O)O)ccc2F)CCO1 [Compound 580] | < 100 | < 100 |
| Cc1cc([C@H](CO[C@@H]2CCCN(CCCc3ccc4c(n3)NCCC4)C2)CC(=O)O)cc(N2CCOC(C)(C)C2)c1 [Compound 581] | 100 to 1000 | 100 to 1000 |
| C[C@@H]1OCCN(c2cccc([C@H](CC(=O)O)NC(=O)[C@@H]3CCCN(CCCc4ccc5c(n4)NCCC5)C3)c2)[C@@H]1C [Compound 583] | < 100 | < 100 |
| C[C@@H]1OCCN(c2cccc([C@H](CC(=O)O)NC(=O)[C@@H]3CCCN(CCCc4ccc5c(n4)NCCC5)C3)c2)[C@H]1C [Compound 584] | < 100 | < 100 |
| C[C@@H]1[C@@H](C)OCCN1c1cccc([C@H](CC(=O)O)NC(=O)[C@@H]2CCCN(CCCc3ccc4c(n3)NCCC4)C2)c1 [Compound 585] | < 100 | < 100 |
| O=C(NC[C@@H](Nc1ccccc1C1CC(F)(F)C1)C(=O)O)[C@@H]1CCCN(CCCc2ccc3c(n2)NCCC3)C1 [Compound 588] | < 100 | < 100 |
| O=C(NC[C@@H](Nc1cccc(C2CC(F)(F)C2)c1)C(=O)O)[C@@H]1CCCN(CCCc2ccc3c(n2)NCCC3)C1 [Compound 589] | < 100 | < 100 |
| CC1(C)CN(c2cccc([C@@H](CNC(=O)[C@@H]3CCCN(CCCc4ccc5c(n4)NCCC5)C3)C(=O)O)c2)CCO1 [Compound 595] | < 100 | < 100 |
| CC1(C)CCN(c2cccc([C@@H](CNC(=O)[C@@H]3CCCN(CCCc4ccc5c(n4)NCCC5)C3)C(=O)O)c2)CC1 [Compound 601] | < 100 | < 100 |
| CNC(=O)[C@H]1C[C@H](C(=O)N[C@@H](CC(=O)O)c2ccccc2)CN(CCCc2ccc3c(n2)NCCC3)C1 [Compound 607] | < 100 | < 100 |
| O=C(O)C(c1ccccc1)C(O)CO[C@@H]1CCCN(CCCc2ccc3c(n2)NCCC3)C1 (stereo partly shown) [Compound 610] | > 1000 | > 1000 |
| O=C(O)[C@H](c1ccccc1)[C@@H](O)CO[C@@H]1CCCN(CCCc2ccc3c(n2)NCCC3)C1 [Compound 612] | > 1000 | > 1000 |

Other lines, results leading:

| IC50 (αvβ1) [nM] | IC50 (αvβ6) [nM] | Compound |
| --- | --- | --- |
| < 100 | < 100 | C[C@H]1OCCN(c2cccc([C@H](CC(=O)O)NC(=O)[C@@H]3CCCN(CCCc4ccc5c(n4)NCCC5)C3)c2)[C@H]1C [Compound 582] |
| < 100 | < 100 | Cc1cc(C)n(-c2cccc([C@H](CC(=O)O)NC(=O)[C@@H]3CCCN(CCCc4ccc5c(n4)NCCC5)C3)c2)c1 [Compound 586] |
| < 100 | < 100 | CC1(C)CN(c2cccc([C@H](CC(=O)O)NC(=O)[C@@H]3CCCN(CCCc4ccc5c(n4)NCCC5)C3)c2)CC(C)(C)C1 [Compound 587] |
| < 100 | < 100 | O=C(NC[C@@H](Nc1cccnc1C1CC(F)(F)C1)C(=O)O)[C@@H]1CCCN(CCCc2ccc3c(n2)NCCC3)C1 [Compound 593] |
| < 100 | < 100 | CC1(C)COCCN1c1cccc([C@@H](CNC(=O)[C@@H]2CCCN(CCCc3ccc4c(n3)NCCC4)C2)C(=O)O)c1 [Compound 597] |
| < 100 | < 100 | CC1(C)CCCN(c2cccc([C@@H](CNC(=O)[C@@H]3CCCN(CCCc4ccc5c(n4)NCCC5)C3)C(=O)O)c2)C1 [Compound 599] |
| < 100 | < 100 | C[C@H]1CN(c2cccc([C@H](CNC(=O)[C@@H]3CCCN(CCCc4ccc5c(n4)NCCC5)C3)C(=O)O)c2)C[C@H](C)O1 [Compound 603] |
| < 100 | < 100 | C[C@@H]1CN(c2cccc([C@@H](CNC(=O)[C@@H]3CCCN(CCCc4ccc5c(n4)NCCC5)C3)C(=O)O)c2)C[C@H](C)O1 [Compound 604] |
| < 100 | < 100 | C[C@@H]1CN(c2cccc([C@H](CNC(=O)[C@@H]3CCCN(CCCc4ccc5c(n4)NCCC5)C3)C(=O)O)c2)C[C@@H](C)O1 [Compound 605] |
| < 100 | 100 to 1000 | CNC(=O)[C@@H]1CN(C(=O)CCCc2ccc3c(c2)NCCC3)C[C@H]1NC(=O)CC(CC(=O)O)c1ccccc1 (stereo partly shown) [Compound 606] |
| > 1000 | > 1000 | O=C(O)[C@@H](c1ccccc1)[C@@H](O)CO[C@@H]1CCCN(CCCc2ccc3c(n2)NCCC3)C1 [Compound 608] |
| > 1000 | > 1000 | O=C(O)[C@@H](c1ccccc1)[C@H](O)CO[C@@H]1CCCN(CCCc2ccc3c(n2)NCCC3)C1 [Compound 609] |
| > 1000 | > 1000 | O=C(O)[C@H](c1ccccc1)[C@H](O)CO[C@@H]1CCCN(CCCc2ccc3c(n2)NCCC3)C1 [Compound 611] |
| < 100 | < 100 | O=C(O)C[C@H](NC(=O)[C@@H]1CCCN(CCCc2ccc3c(n2)NCCC3)C1)c1ccc2c(c1)OCC2 [Compound 613] |
